Consider 2 compounds from publication PMC4519322 (PLoS Pathogens, 2015).

For one assay, the system named is Y289H rWSN. The assay is classed as cell-based, influenza A virus. The settings on record: read-out: IC50 (μM) Y289H rWSM (H1N1).
Another assay relates to A/WSN/1933 (H1N1). The assay is classed as cell-based, influenza A virus.

A word on the IC50: it is the concentration that inhibits the measured activity by half. Take `Cc1onc(-c2ccccc2)c1C(=O)N1CCN(c2ccc([N+](=O)[O-])cc2Cl)CC1` [Nucleozin, nucleozin, reference compound]: in the assay on Y289H rWSN, the IC50 is > 100 µM. For the same compound, in the assay on A/WSN/1933 (H1N1), the “sensitivity of RK424 3rd passage virus” value is listed as “susceptible” and the “sensitivity of nucleozin 4th passage virus” value is “exhibited resistance”.
The like results for `O=C(O)c1cc(-c2ccc(-c3ccccc3)cc2)nc2ccccc12` [RK424] were, in that order, 0.3 ± 0.1 µM, “susceptible” and “but not RK424”.
